Laboratory results published in ChEMBL document CHEMBL4351003, “Selective Toll-like receptor 7 agonists with novel chromeno[3,4-d]imidazol-4(1H)-one and 2-(trifluoromethyl)quinoline/ quinazoline-4-amine scaffolds” (Eur J Med Chem, 2019).
Activity calls are given as the source filed them. The calls are words filed in the database; no cut-off is given here.

Legend:
[1] = biological target: T1, Toll-like receptor 8 (Homo sapiens) (UniProt Q9NR97); assay: Agonist activity at human TLR8 in HEK293 cells cotransfected with SEAP reporter gene assessed as activity of SEAP incubated for 24 hrs by quanti-blue staining based SEAP reporter gene assay; format: cell-based
T1 sequence (whole entry): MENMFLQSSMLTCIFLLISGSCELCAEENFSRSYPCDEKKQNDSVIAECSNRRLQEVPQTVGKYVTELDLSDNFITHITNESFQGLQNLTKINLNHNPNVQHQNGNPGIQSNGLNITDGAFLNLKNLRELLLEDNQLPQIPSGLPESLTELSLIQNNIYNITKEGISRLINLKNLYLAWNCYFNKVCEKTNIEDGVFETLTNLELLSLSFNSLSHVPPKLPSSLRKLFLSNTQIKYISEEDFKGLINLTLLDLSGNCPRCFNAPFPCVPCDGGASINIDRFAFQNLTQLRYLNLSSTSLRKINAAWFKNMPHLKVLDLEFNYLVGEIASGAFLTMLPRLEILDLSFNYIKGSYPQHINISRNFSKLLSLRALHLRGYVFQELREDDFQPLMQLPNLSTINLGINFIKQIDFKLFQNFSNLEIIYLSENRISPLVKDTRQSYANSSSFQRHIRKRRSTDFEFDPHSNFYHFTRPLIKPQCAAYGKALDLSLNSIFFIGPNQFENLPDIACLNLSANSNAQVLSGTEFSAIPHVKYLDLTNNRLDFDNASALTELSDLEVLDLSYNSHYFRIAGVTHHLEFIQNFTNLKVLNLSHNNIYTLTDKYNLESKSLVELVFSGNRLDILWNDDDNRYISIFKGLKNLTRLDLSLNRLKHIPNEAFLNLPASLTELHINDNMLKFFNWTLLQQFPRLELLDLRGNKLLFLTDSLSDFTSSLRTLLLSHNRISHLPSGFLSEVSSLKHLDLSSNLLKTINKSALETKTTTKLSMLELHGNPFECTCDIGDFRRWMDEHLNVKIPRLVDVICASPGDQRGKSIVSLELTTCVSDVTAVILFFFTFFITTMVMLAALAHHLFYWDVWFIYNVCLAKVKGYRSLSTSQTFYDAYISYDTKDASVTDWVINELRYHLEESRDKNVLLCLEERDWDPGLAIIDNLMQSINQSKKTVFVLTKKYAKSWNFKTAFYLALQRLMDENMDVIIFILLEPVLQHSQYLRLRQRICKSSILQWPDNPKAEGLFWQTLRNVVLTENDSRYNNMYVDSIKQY

[2] = Cytotoxicity against human HEK293 cells transfected with human TLR7/8 assessed as reduction in cell viability incubated for 24 hrs by MTS assay; format: cell-based; conditions: read-out: MNCC
Toll-like receptor 7 = biological target: T2, Toll-like receptor 7 (Homo sapiens, UniProt Q9NYK1); assay: Agonist activity at human TLR7 in HEK293 cells cotransfected with SEAP reporter gene assessed as activity of SEAP incubated for 24 hrs by quanti-blue staining based SEAP reporter gene assay; format: cell-based
T2 sequence (Q9NYK1 whole entry): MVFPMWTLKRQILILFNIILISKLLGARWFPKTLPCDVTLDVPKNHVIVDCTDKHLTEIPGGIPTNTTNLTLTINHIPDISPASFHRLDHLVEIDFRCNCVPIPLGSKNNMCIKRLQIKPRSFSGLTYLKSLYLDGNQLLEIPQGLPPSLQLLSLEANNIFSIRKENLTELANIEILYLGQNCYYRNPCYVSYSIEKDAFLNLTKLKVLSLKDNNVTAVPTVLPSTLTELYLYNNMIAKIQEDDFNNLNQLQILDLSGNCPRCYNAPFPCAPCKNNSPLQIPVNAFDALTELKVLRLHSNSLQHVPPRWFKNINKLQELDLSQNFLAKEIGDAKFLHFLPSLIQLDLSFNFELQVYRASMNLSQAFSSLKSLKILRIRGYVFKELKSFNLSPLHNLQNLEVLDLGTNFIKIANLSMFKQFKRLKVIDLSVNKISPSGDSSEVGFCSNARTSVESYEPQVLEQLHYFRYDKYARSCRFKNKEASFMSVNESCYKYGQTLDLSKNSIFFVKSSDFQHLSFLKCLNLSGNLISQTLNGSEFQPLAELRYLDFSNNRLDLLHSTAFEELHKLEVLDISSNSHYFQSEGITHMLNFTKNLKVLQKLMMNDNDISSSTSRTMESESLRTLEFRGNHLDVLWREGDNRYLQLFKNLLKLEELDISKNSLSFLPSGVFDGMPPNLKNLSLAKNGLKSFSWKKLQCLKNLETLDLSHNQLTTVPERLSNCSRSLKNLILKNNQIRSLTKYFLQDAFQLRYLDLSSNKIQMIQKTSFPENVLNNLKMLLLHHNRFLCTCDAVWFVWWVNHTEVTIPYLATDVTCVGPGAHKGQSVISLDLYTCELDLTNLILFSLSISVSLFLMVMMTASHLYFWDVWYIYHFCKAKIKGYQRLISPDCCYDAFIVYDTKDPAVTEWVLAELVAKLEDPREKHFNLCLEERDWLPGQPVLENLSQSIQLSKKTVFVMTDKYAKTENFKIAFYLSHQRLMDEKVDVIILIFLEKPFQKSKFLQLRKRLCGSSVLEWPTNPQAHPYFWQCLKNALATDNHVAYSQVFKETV

[3] = biological target: T3, Toll-like receptor 7 (Homo sapiens) (UniProt Q9NYK1); assay: Antagonist activity at human TLR7 in HEK293 cells cotransfected with SEAP reporter gene assessed as activity of SEAP preincubated for 2 hrs followed by imiquimod addition further incubated for 24 hrs by quanti-blue staining based SEAP reporter gene assay; format: cell-based
T3 sequence (whole entry): T2 sequence (Q9NYK1 whole entry)

PBMC [4] = assay: Induction of IL-6 production in human PBMC at 10 ug/ml incubated for 24 hrs by flow cytometry analysis; format: functional, cell-based
PBMC [5] = assay: Induction of TNFalpha production in human PBMC at 10 ug/ml incubated for 24 hrs by flow cytometry analysis; format: functional, cell-based
PBMC [6] = assay: Induction of IL-12p70 production in human PBMC at 10 ug/ml incubated for 24 hrs by flow cytometry analysis; format: functional, cell-based
PBMC [7] = assay: Induction of IL-8 production in human PBMC at 10 ug/ml incubated for 24 hrs by flow cytometry analysis; format: functional, cell-based

| Structure (SMILES) | Activity [1] | MNTC at 24 h [2] | EC50 (Toll-like receptor 7; read-out: EC50) | Activity [3] | Activity (PBMC [4]) | Activity (PBMC [5]) | Activity (PBMC [6]) | Activity (PBMC [7]) | EC50 (Toll-like receptor 7; hek293) |
| --- | --- | --- | --- | --- | --- | --- | --- | --- | --- |
| FC(F)(F)c1nc(NCC2CC2)c2ccccc2n1 | inactive | 31.3 µM | 15 µM | inactive |  |  |  |  |  |
| CCCNc1nc(C(F)(F)F)nc2ccccc12 | inactive | 62.5 µM | 44 µM | inactive |  |  |  |  |  |
| FC(F)(F)c1nc(NC2CCCCC2)c2ccccc2n1 | inactive | 31.3 µM | 8.3 µM | inactive | Active | inactive | inactive | Active |  |
| CC(C)n1cnc2c(=O)oc3ccccc3c21 |  | ≥ 250 µM |  |  |  |  |  |  | Not Active |
| FC(F)(F)c1nc(N2CCOCC2)c2ccccc2n1 |  | 125 µM |  |  |  |  |  |  | Not Active |
| CCN(CC)c1ccc2c(c1)oc(=O)c1ncn(CC(C)C)c12 | inactive | 62.5 µM | 29.9 µM | inactive |  |  |  |  |  |
| CCCCn1cnc2c(=O)oc3ccccc3c21 | inactive | ≥ 250 µM | 107 µM | inactive |  |  |  |  |  |
| COc1ccc2oc(=O)c3ncn(CC(C)C)c3c2c1 |  | 62.5 µM |  |  |  |  |  |  | Not Active |
| FC(F)(F)c1nc(NCCN2CCCCC2)c2ccccc2n1 |  | 62.5 µM |  |  |  |  |  |  | Not Active |
| CC(C)CNc1cc(C(F)(F)F)nc2ccccc12 | inactive | 62.5 µM | 6.3 µM | inactive | Active | inactive | inactive | Active |  |
| FC(F)(F)c1nc(N2CCCC2)c2ccccc2n1 | inactive | 31.3 µM | 15.4 µM | inactive |  |  |  |  |  |
| C=CCn1cnc2c(=O)oc3ccccc3c21 |  | ≥ 250 µM |  |  |  |  |  |  | Not Active |
| CCn1cnc2c(=O)oc3ccc(F)cc3c21 |  | ≥ 250 µM |  |  |  |  |  |  | Not Active |
| FC(F)(F)c1nc(NC2CC2)c2ccccc2n1 | inactive | 125 µM | 16.8 µM | inactive | Active | inactive | inactive | Active |  |
| Oc1nc(C(F)(F)F)nc2ccccc12 |  | 62.5 µM |  |  |  |  |  |  | Not Active |
| COc1ccc2c(c1)oc(=O)c1ncn(CC(C)C)c12 | inactive | ≥ 250 µM | 279 µM | inactive |  |  |  |  |  |
| Cc1ccc2oc(=O)c3ncn(CC(C)C)c3c2c1 | inactive | ≥ 250 µM | 535 µM | inactive |  |  |  |  |  |
| CC(C)Nc1nc(C(F)(F)F)nc2ccccc12 | inactive | 62.5 µM | 57.4 µM | inactive |  |  |  |  |  |
| FC(F)(F)c1nc(NC2CCN(C3CC3)CC2)c2ccccc2n1 | inactive | 125 µM | 66.6 µM | inactive |  |  |  |  |  |
| CN1CCN(c2nc(C(F)(F)F)nc3ccccc23)CC1 |  | 7.8 to 250 µM |  |  |  |  |  |  | Not Active |

| Structure (SMILES) | Activity [1] | MNTC at 24 h [2] | EC50 (Toll-like receptor 7; read-out: EC50) | Activity [3] | Activity (PBMC [4]) | Activity (PBMC [5]) | Activity (PBMC [6]) | Activity (PBMC [7]) | EC50 (Toll-like receptor 7; hek293) |
| --- | --- | --- | --- | --- | --- | --- | --- | --- | --- |
| FC(F)(F)c1nc(Cl)c2ccccc2n1 |  | 31.3 µM |  |  |  |  |  |  | Not Active |
| Nc1nc(C(F)(F)F)nc2ccccc12 |  | 62.5 µM |  |  |  |  |  |  | Not Active |
| FC(F)(F)c1nc(NC2CCCC2)c2ccccc2n1 | inactive | 62.5 µM | 10.9 µM | inactive |  |  |  |  |  |
| CC1CCCN(c2cc(C(F)(F)F)nc3ccccc23)C1 (stereo not given) |  | 31.3 µM |  |  |  |  |  |  | Not Active |
| CCCn1cnc2c(=O)oc3ccccc3c21 |  | ≥ 250 µM |  |  |  |  |  |  | Not Active |
| CC1CCCN(c2nc(C(F)(F)F)nc3ccccc23)C1 (stereo not given) | inactive | 62.5 µM | 4 µM | inactive |  |  |  |  |  |
| CC(C)CNc1nc(C(F)(F)F)nc2ccccc12 | inactive | 7.8 to 250 µM | 4.4 µM | inactive |  |  |  |  |  |
| O=C(O)CNc1nc(C(F)(F)F)nc2ccccc12 |  | 31.3 µM |  |  |  |  |  |  | Not Active |
| FC(F)(F)c1nc(NCCc2cnc[nH]2)c2ccccc2n1 |  | 31.3 µM |  |  |  |  |  |  | Not Active |
| CC(C)Cn1cnc2c(N)nc3ccccc3c21 [IMIQUIMOD] |  |  | 6.2 to 8.2 µM |  |  | inactive | inactive | Active |  |
| COCCn1cnc2c(=O)oc3ccccc3c21 |  | ≥ 250 µM |  |  |  |  |  |  | Not Active |
| CC(C)Cn1cnc2c(=O)oc3cc(O)ccc3c21 | inactive | ≥ 250 µM | 114 µM | inactive |  |  |  |  |  |
| COCCCn1cnc2c(=O)oc3ccccc3c21 |  | ≥ 250 µM |  |  |  |  |  |  | Not Active |
| OCCNc1nc(C(F)(F)F)nc2ccccc12 |  | 125 µM |  | inactive |  |  |  |  |  |
| CC(C)Cn1cnc2c(=O)oc3ccc(F)cc3c21 |  | ≥ 250 µM |  |  |  |  |  |  | Not Active |
| CC(C)Cn1cnc2c(=O)oc3ccccc3c21 | inactive |  |  | Active |  |  |  |  |  |
| CC(C)Cn1cnc2c(=O)oc3ccc([N+](=O)[O-])cc3c21 |  | 62.5 µM |  |  |  |  |  |  | Not Active |
| Nc1ccc(CNc2nc(C(F)(F)F)nc3ccccc23)cc1 |  | 15.6 µM |  |  |  |  |  |  | Not Active |
| CC(C)Cn1cnc2c(=O)oc3ccc(O)cc3c21 | inactive | 62.5 µM | 1.8 µM | inactive | inactive | inactive | inactive | inactive |  |
